What is called Ki is a measure of affinity in units of concentration, obtained from inhibition or displacement.

One experiment deals with T1, human muscarinic M3 receptor (Homo sapiens, UniProt P20309).
T1 construct: expressed in transfected cells
T1 sequence (P20309 whole entry): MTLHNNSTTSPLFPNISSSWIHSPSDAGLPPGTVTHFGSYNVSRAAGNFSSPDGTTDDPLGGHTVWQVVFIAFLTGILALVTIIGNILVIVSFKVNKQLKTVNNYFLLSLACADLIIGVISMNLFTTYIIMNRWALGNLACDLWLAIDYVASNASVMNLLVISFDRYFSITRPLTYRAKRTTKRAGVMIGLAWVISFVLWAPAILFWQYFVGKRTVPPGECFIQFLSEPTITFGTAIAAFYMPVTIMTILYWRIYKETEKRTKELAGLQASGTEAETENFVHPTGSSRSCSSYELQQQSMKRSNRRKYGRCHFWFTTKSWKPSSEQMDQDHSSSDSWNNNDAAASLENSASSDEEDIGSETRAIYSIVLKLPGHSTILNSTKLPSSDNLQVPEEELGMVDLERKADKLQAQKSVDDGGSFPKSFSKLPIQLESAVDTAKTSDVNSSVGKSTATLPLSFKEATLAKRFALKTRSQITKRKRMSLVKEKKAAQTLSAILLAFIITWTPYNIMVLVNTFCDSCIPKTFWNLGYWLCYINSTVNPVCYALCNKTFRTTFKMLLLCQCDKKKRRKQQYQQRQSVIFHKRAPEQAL
The experiment is described as follows: hM3 β-Lac potency assay (cell based β-lactamase).
Settings: not given
The method, then: M3 potency was determined in CHO-K1 cells transfected with the NFAT-Betalactamase gene. CHO (Chinese Hamster Ovary) cells recombinantly expressing the human muscarinic M3 receptor were transfected with the NFAT_β-Lac_Zeo plasmid.
The cells were re-suspended at 2×10^5 cells/ml in growth medium (composition as described above). […] Inhibition curves were plotted and IC50 values generated using a 4-parameter sigmoid fit and converted to Ki values using the Cheng-Prusoff correction and the KD value for carbamyl choline in the assay.
For the molecule `CC(C)(CCC(C(N)=O)(c1ccccc1)c1ccccc1)N1CC[C@H](Oc2ccc(Cl)cc2O)C1` [Example 36, 5-[(3S)-3-(4-Chloro-2-Hydroxy-phenoxy)-pyrrolidin-1-yl]-5-methyl-2,2-diphenyl-hexanoic acid amide], the affinity corresponds to a Ki of 17.6 nM.

The experiment is the same for the next values; noted with them: CHO cells expressing human M3 receptor, NFAT β-lactamase reporter; inhibition of 80 nM carbamyl choline signal, 4 h; IC50 converted to Ki by Cheng-Prusoff; read-out: Cell based β-lactamase M3 Ki.
In the case of `CC(C)(CCC(C(N)=O)(c1ccccc1)c1ccccc1)N1CC[C@H](Oc2ccc3cc(O)ccc3c2)C1` [Example 20, 5-{(3S)-3-[(6-Hydroxy-2-naphthyl)oxy]pyrrolidin-1-yl}-5-methyl-2,2-diphenylhexanamide], the inhibition constant Ki is 108 nM. Turning to `CC(C)(CCC(C(N)=O)(c1ccccc1)c1ccccc1)N1CC[C@H](OCc2cccc(-c3ccccc3)c2)C1` [Example 66, 5-[(3S)-3-(Biphenyl-3-ylmethoxy)pyrrolidin-1-yl]-5-methyl-2,2-diphenylhexanamide], the Ki amounted to 45.4 nM. On the same count and under the same terms, to `CC(C)(CCC(C(N)=O)(c1ccccc1)c1ccccc1)N1CCC(OCc2cccc(-c3cccc(O)c3)c2)CC1` [Example 98, 5-{4-[(3′-hydroxybiphenyl-3-yl)methoxy]piperidin-1-yl}-5-methyl-2,2-diphenylhexanamide] belongs 139 nM. `COc1cc(F)cc(O[C@@H]2CCN(C(C)(C)CCC(C(N)=O)(c3ccccc3)c3ccccc3)C2)c1` [Example 73, 5-[(3R)-3-(3-Fluoro-5-methoxy-phenoxy)-pyrrolidin-1-yl]-5-methyl-2,2-diphenylhexanamide]: the Ki was 0.852 nM.

For the molecule `CC(C)(CCC(C(N)=O)(c1ccccc1)c1ccccc1)N1CC[C@H](Oc2cc(Cl)c(Cl)cc2O)C1` [Example 32, 5-[(3S)-3-(4,5-Dichloro-2-Hydroxy-phenoxy)-pyrrolidin-1-yl]-5-methyl-2,2-diphenyl-hexanoic acid amide], the inhibitory constant (Ki) was determined as 36.4 nM.

In the case of `CC(C)(CCC(C(N)=O)(c1ccccc1)c1ccccc1)N1CC(Oc2cccc(O)c2)C1` [Example 108, 5-[3-(3-Hydroxyphenoxy)azetidin-1-yl]-5-methyl-2,2-diphenylhexanamide], the Ki is 0.201 nM. Consider `CC(C)(CCC(C(N)=O)(c1ccccc1)c1ccccc1)N1CC[C@@H](OCc2ccc(Cl)c(O)c2)C1` [Example 79, 5-[(3R)-3-(4-Chloro-3-hydroxy-benzyloxy)-pyrrolidin-1-yl]-5-methyl-2,2-diphenyl hexanamide], for which the inhibition constant Ki worked out at 16.2 nM. On to `CC(C)(CCC(C(N)=O)(c1ccccc1)c1ccccc1)N1CCC(Oc2cc(O)c(Cl)cc2Cl)CC1` [Example 93, 5-[4-(2,4-Dichloro-5-hydroxy-phenoxy)-piperidin-1-yl]-5-methyl-2,2-diphenylhexanoic acid amide], for which the Ki came out at 26.8 nM. Regarding `CC(C)(CCC(C(N)=O)(c1ccccc1)c1ccccc1)N1CC(OCc2cccc(O)c2Cl)C1` [Example 148, 5-[3-(2-Chloro-3-hydroxy-benzyloxy)-azetidin-1-yl]-5-methyl-2,2-diphenyl-hexanoic acid amide], the Ki was 0.353 nM. The same measure, in the same setting: to `COc1cccc(OC2CN(C(C)(C)CCC(C(N)=O)(c3ccccc3)c3ccccc3)C2)c1` [Example 100, 5-[3-(3-Methoxyphenoxy)azetidin-1-yl]-5-methyl-2,2-diphenylhexanamide] belongs 0.43 nM; to `CC(C)(CCC(C(N)=O)(c1ccccc1)c1ccccc1)N1CC[C@H](Oc2ccc(-c3ccccc3)cc2)C1` [Example 71, 5-[(3S)-3-(4-Phenylphenoxy)pyrrolidin-1-yl]-5-methyl-2,2-diphenylhexanamide], 113 nM; to `CC(C)(CCC(C(N)=O)(c1ccccc1)c1ccccc1)N1CC[C@H](Oc2cc(O)cc(F)c2)C1` [Example 46, 5-[(3S)-3-(3-Fluoro-5-Hydroxy-phenoxy)-pyrrolidin-1-yl]-5-methyl-2,2-diphenyl-hexanoic acid amide], 1.74 nM. On the same count and under the same terms, next, `Cc1cccc(O[C@H]2CCN(C(C)(C)CCC(C(N)=O)(c3ccccc3)c3ccccc3)C2)c1` [Example 14, 5-Methyl-5-[(3S)-3-(3-methylphenoxy)pyrrolidin-1-yl]-2,2-diphenylhexanamide]: 1.32 nM; `CC(C)(CCC(C(N)=O)(c1ccccc1)c1ccccc1)N1CC[C@H](Oc2cc(O)cc(Cl)c2)C1` [Example 34, 5-[(3S)-3-(3-Chloro-5-hydroxy-phenoxy)-pyrrolidin-1-yl]-5-methyl-2,2-diphenyl-hexanoic acid amide]: 6.57 nM; `CC(C)(CCC(C(N)=O)(c1ccccc1)c1ccccc1)N1CC[C@@H](Oc2ccc(C#N)c(O)c2)C1` [Example 83, 5-[(3R)-3-(3-hydroxy-4-cyano-phenoxy)-pyrrolidin-1-yl]-5-methyl-2,2-diphenylhexanamide]: 30 nM. With `CC(C)(CCC(C(N)=O)(c1ccccc1)c1ccccc1)N1CC[C@@H](Oc2cccc(O)c2F)C1` [Example 76, 5-[(3R)-3-(2-Fluoro-3-hydroxy-phenoxy)-pyrrolidin-1-yl]-5-methyl-2,2-diphenylhexanamide], the inhibition constant (Ki) amounted to 0.582 nM. The same measure, in the same setting: to `CC(C)(CCC(C(N)=O)(c1ccccc1)c1ccccc1)N1CC[C@@H](Oc2cc(O)cc(C(F)(F)F)c2)C1` [Example 49, 5-[(3R)-3-(3-Hydroxy-5-trifluoromethyl-phenoxy)-pyrrolidin-1-yl]-5-methyl-2,2-diphenyl-hexanoic acid amide] belongs 48.5 nM. Same read-out and setting: to `CC(C)(CCC(C#N)(c1ccccc1)c1ccccc1)N1CCC(OCc2ccccc2)CC1` [Example 89, 5-[4-(Benzyloxy)piperidin-1-yl]-5-methyl-2,2-diphenylhexanenitrile] belongs 159 nM; to `CC(C)(CCC(C(N)=O)(c1ccccc1)c1ccccc1)N1CC[C@@H](Oc2ccc(Cl)c(O)c2)C1` [Example 82, 5-[(3R)-3-(3-hydroxy-4-chloro-phenoxy)-pyrrolidin-1-yl]-5-methyl-2,2-diphenylhexanamide], 7.96 nM. Still for that read-out and setting: to `CC(C)(CCC(C(N)=O)(c1ccccc1)c1ccccc1)N1CC[C@H](OCc2ccccc2)C1` [Example 11, 5-[(3S)-3-(Benzyloxy)pyrrolidin-1-yl]-5-methyl-2,2-diphenylhexanamide] belongs 3.27 nM. Take `CC(C)(CCC(C(N)=O)(c1ccccc1)c1ccccc1)N1CC[C@H](Oc2ccc(-c3cccc(O)c3)cc2)C1` [Example 18, 5-{(3S)-3-[(3′-Hydroxybiphenyl-4-yl)oxy]pyrrolidin-1-yl}-5-methyl-2,2-diphenylhexanamide]: the inhibition constant (Ki) came to 6.96 nM. Same read-out and setting: to `CC(C)(CCC(C(N)=O)(c1ccccc1)c1ccccc1)N1CC(OCc2cccc(O)c2)C1` [Example 115, 5-[3-(3-Hydroxy-benzyloxy)-azetidin-1-yl]-5-methyl-2,2-diphenyl-hexanoic acid amide] belongs 0.176 nM; to `CC(C)(CCC(C(N)=O)(c1ccccc1)c1ccccc1)N1CC[C@H](Oc2cc(O)cc(C#N)c2)C1` [Example 68, 5-[(3S)-3-(3-Cyano-5-hydroxy-phenoxy)-pyrrolidin-1-yl]-5-methyl-2,2-diphenylhexanamide], 9.88 nM; to `COc1ccc(C#N)c(O[C@H]2CCN(C(C)(C)CCC(C(N)=O)(c3ccccc3)c3ccccc3)C2)c1` [Example 69, 5-[(3S)-3-(2-Cyano-5-methoxy-phenoxy)-pyrrolidin-1-yl]-5-methyl-2,2-diphenylhexanamide], 111 nM.

In the case of `CC(C)(CCC(C(N)=O)(c1ccccc1)c1ccccc1)N1CC[C@H](OCc2ccc(-c3cccc(O)c3)cc2)C1` [Example 65, 5-[(3S)-3-[(3′-Hydroxybiphenyl-4-yl)methoxy]pyrrolidin-1-yl]5-methyl-2,2-diphenylhexanamide], the Ki came to 62.7 nM.
